In patent publication US11992012B2, “Diaminotriazine compounds” (BASF SE, priority 2018, dated 2024):

Experiments:
Test in all cases: greenhouse pre-emergence herbicidal test
Type in all cases: in vivo
Conditions in all cases: 250 g/ha, scale 0 to 100
Setaria faberi = tested on: Setaria faberi
Text: (§1) The culture containers used were plastic flowerpots containing loamy sand with approximately 3.0% of humus as the substrate. The seeds of the test plants were sown separately for each species. For the pre-emergence treatment, the active ingredients, which had been suspended or emulsified in water, were applied directly after sowing by means of finely distributing nozzles. The containers were irrigated gently to promote germination and growth and subsequently covered with transparent plastic hoods until the plants had rooted. This cover caused uniform germination of the test plants, unless this had been impaired by the active ingredients. […] The test period extended over 2 to 4 weeks. During this time, the plants were tended, and their response to the individual treatments was evaluated. Evaluation was carried out using a scale from 0 to 100. 100 means no emergence of the plants, or complete destruction of at least the aerial moieties, and 0 means no damage, or normal course of growth.

Abutilon theophrasti = tested on: Abutilon theophrasti
Text: as §1

Amaranthus retroflexus = tested on: Amaranthus retroflexus
Text: (§2) The culture containers used were plastic flowerpots containing loamy sand with approximately 3.0% of humus as the substrate. The seeds of the test plants were sown separately for each species.
(§3) For the pre-emergence treatment, the active ingredients, which had been suspended or emulsified in water, were applied directly after sowing by means of finely distributing nozzles. The containers were irrigated gently to promote germination and growth and subsequently covered with transparent plastic hoods until the plants had rooted. This cover caused uniform germination of the test plants, unless this had been impaired by the active ingredients.
(§4) Depending on the species, the plants were kept at 10-25° C. or 20-35° C., respectively.
(§5) The test period extended over 2 to 4 weeks. During this time, the plants were tended, and their response to the individual treatments was evaluated.
(§6) Evaluation was carried out using a scale from 0 to 100. 100 means no emergence of the plants, or complete destruction of at least the aerial moieties, and 0 means no damage, or normal course of growth. A moderate herbicidal activity is given at values of at least 60, a good herbicidal activity is given at values of at least 70, and a very good herbicidal activity is given at values of at least 85.

Echinocloa crus-galli = tested on: Echinocloa crus-galli
Text: as §2, §3, §4, §5, §6

Alopercurus myosuroides = tested on: Alopercurus myosuroides
Text: as §2, §3, §4, §5, §6

| Compound | herbicidal activity (Setaria faberi) | herbicidal activity (Abutilon theophrasti) | herbicidal activity (Amaranthus retroflexus) | herbicidal activity (Echinocloa crus-galli) | herbicidal activity (Alopercurus myosuroides) |
| --- | --- | --- | --- | --- | --- |
| CC(C)(F)c1nc(N)nc(Nc2c(F)cccc2OCc2ccsc2)n1 [Example 22] | 100% | 100% | 100% | 100% | – |
| Cc1cccc(COc2cccc(F)c2Nc2nc(N)nc(C(C)(C)F)n2)c1 [Example 26] | 70% | 85% | – | 80% | – |
| CC(C)(F)c1nc(N)nc(Nc2c(F)cccc2OCc2ccccc2F)n1 [Example 27] | 100% | 100% | – | 100% | – |
| Cc1ccccc1COc1cccc(F)c1Nc1nc(N)nc(C(C)(C)F)n1 [Example 30] | 100% | 100% | 100% | 100% | – |
| Nc1nc(Nc2c(F)cccc2OCc2ccccc2)nc(C2(F)CCCCC2)n1 [Example 31] | – | 85% | 75% | 100% | – |
| CCC(F)c1nc(N)nc(Nc2c(F)cccc2OCc2ccccc2)n1 (stereo not drawn) [Example 35] | 100% | 100% | 100% | 100% | – |
| CC(C)(F)c1nc(N)nc(Nc2c(F)cccc2OCc2nc(C3CC3)no2)n1 [Example 42] | – | 80% | 100% | – | – |
| CC(C)(F)c1nc(N)nc(Nc2c(F)cccc2OCc2cc(F)cc(F)c2)n1 [Example 43] | – | 100% | 100% | 100% | – |
| CC(C)(F)c1nc(N)nc(Nc2c(F)cccc2OCc2cccc(Br)c2)n1 [Example 44] | 70% | 70% | – | – | – |
| CC(C)(F)c1nc(N)nc(Nc2c(F)cccc2OCc2cccc(Cl)c2)n1 [Example 47] | – | 100% | 100% | 80% | – |
| CC(C)(F)c1nc(N)nc(Nc2c(F)cccc2OCc2ncco2)n1 [Example 70] | – | 100% | 100% | 100% | – |
| CCCC(F)c1nc(N)nc(Nc2c(F)cccc2OCc2ccccc2)n1 (stereo not drawn) [Example 77] | 100% | 80% | – | 100% | – |
| COc1ccccc1COc1cccc(F)c1Nc1nc(N)nc(C(C)(C)F)n1 [Example 100] | – | 80% | 100% | 100% | – |
| Cc1c(F)cccc1COc1cccc(F)c1Nc1nc(N)nc(C(C)(C)F)n1 [Example 102] | 100% | 85% | – | 100% | – |
| CC(C)(F)c1nc(N)nc(Nc2c(OCc3ccccc3)ccc(F)c2F)n1 [Example 108] | 100% | – | 100% | 100% | 100% |
| CC(C)(F)c1nc(N)nc(Nc2c(C#N)cccc2OCc2ccccc2)n1 [Example 128] | 90% | 90% | 100% | – | – |
| CC(C)(F)c1nc(N)nc(Nc2c(F)cccc2OC(F)(F)c2cccc(F)c2)n1 [Example 130] | 100% | 100% | – | 100% | – |
| COC(C)(C)c1nc(N)nc(Nc2c(F)cccc2OC(F)(F)c2cccc(F)c2)n1 [Example 131] | 90% | 90% | 85% | – | – |
| COc1cccc(COc2c(F)ccc(F)c2Nc2nc(N)nc(C(C)(C)F)n2)c1 [Example 139] | 100% | 100% | 100% | 100% | – |
| Cc1ccc(COc2c(F)ccc(F)c2Nc2nc(N)nc(C(C)(C)F)n2)cc1 [Example 141] | 100% | 98% | – | 100% | – |
| CC(C)(F)c1nc(N)nc(Nc2c(F)ccc(F)c2OCc2ccccc2F)n1 [Example 172] | 100% | 100% | – | 100% | – |
| COc1ccccc1COc1c(F)ccc(F)c1Nc1nc(N)nc(C(C)(C)F)n1 [Example 173] | – | 100% | 100% | 100% | – |
| Cc1ccc(F)c(Nc2nc(N)nc(C(C)(C)F)n2)c1OCc1ccccc1 [Example 175] | 95% | 85% | – | 100% | – |

| Compound | herbicidal activity (Setaria faberi) | herbicidal activity (Abutilon theophrasti) | herbicidal activity (Amaranthus retroflexus) | herbicidal activity (Echinocloa crus-galli) | herbicidal activity (Alopercurus myosuroides) |
| --- | --- | --- | --- | --- | --- |
| Cc1ccc(COc2c(F)cc(F)c(F)c2Nc2nc(N)nc(C(C)(C)F)n2)cc1 [Example 183] | 100% | 100% | – | 100% | – |
| COc1ccccc1COc1ccc(F)c(F)c1Nc1nc(N)nc(C(C)(C)F)n1 [Example 198] | 100% | 98% | – | 100% | – |
| CC(C)(C)c1nc(N)nc(Nc2c(F)c(F)cc(F)c2OCc2ccccc2)n1 [Example 200] | 100% | 100% | – | 100% | – |
| Nc1nc(Nc2c(F)cccc2OCc2ccccc2)nc(C(F)C2CCCC2)n1 (stereo not drawn) [Example 202] | 85% | 80% | – | 80% | – |
| CC(C)(F)c1nc(N)nc(Nc2c(F)c(F)cc(F)c2OCc2ccc(Cl)cc2)n1 [Example 207] | 100% | 90% | – | 100% | – |
| CC(C)c1ccccc1COc1c(F)cc(F)c(F)c1Nc1nc(N)nc(C(C)(C)F)n1 [Example 208] | – | 90% | 80% | – | – |
| CC(C)(F)c1nc(N)nc(Nc2c(F)c(F)cc(F)c2OCc2cccc(Cl)c2)n1 [Example 217] | 100% | 98% | – | 100% | – |
| COCc1cccc(COc2c(F)cc(F)c(F)c2Nc2nc(N)nc(C(C)(C)F)n2)c1 [Example 219] | 100% | 100% | – | 85% | – |
| CC(C)(F)c1nc(N)nc(Nc2c(F)c(F)cc(Br)c2OCc2ccccc2)n1 [Example 222] | 100% | 98% | – | 100% | – |
| CC(C)(F)c1nc(N)nc(Nc2c(F)ccc(Br)c2OCc2ccccc2)n1 [Example 223] | 100% | 100% | – | 95% | – |
| COCc1ccccc1COc1c(F)cc(F)c(F)c1Nc1nc(N)nc(C(C)(C)F)n1 [Example 224] | 100% | 100% | – | 90% | – |
| CC(C)(F)c1nc(N)nc(Nc2c(F)c(F)cc(F)c2OCc2ccccc2Br)n1 [Example 232] | 100% | 100% | – | 100% | – |
| COC(C)c1nc(N)nc(Nc2c(F)c(F)cc(F)c2OCc2ccccc2Cl)n1 (stereo not drawn) [Example 243] | 85% | 85% | – | 85% | – |
| COC(C)c1nc(N)nc(Nc2c(F)c(F)cc(F)c2OCc2cccc(Cl)c2)n1 (stereo not drawn) [Example 244] | 75% | 85% | 75% | – | – |
| CC(C)(Cl)c1nc(N)nc(Nc2c(F)c(F)cc(F)c2OCc2ccccc2)n1 [Example 246] | – | 100% | 100% | 100% | – |
| COC(C)(C)c1nc(N)nc(Nc2c(F)c(F)cc(F)c2OCc2ccccc2F)n1 [Example 248] | – | 100% | 100% | 100% | – |
| COC(C)(C)c1nc(N)nc(Nc2c(F)c(F)cc(F)c2OCc2cccc(F)c2)n1 [Example 249] | 100% | 100% | – | 100% | – |
| COC(C)(C)c1nc(N)nc(Nc2c(F)c(F)cc(F)c2OCc2ccc(F)cc2)n1 [Example 250] | – | 100% | 100% | 100% | – |
| COC(C)(C)c1nc(N)nc(Nc2c(F)c(F)cc(F)c2OCc2ccccc2Cl)n1 [Example 251] | 100% | 98% | – | 95% | – |
| COC(C)(C)c1nc(N)nc(Nc2c(F)c(F)cc(F)c2OCc2cccc(Cl)c2)n1 [Example 252] | 100% | 100% | 95% | – | – |
| CC(C)c1nc(N)nc(Nc2c(F)c(F)cc(F)c2OCc2ccccc2)n1 [Example 254] | 100% | 100% | – | 100% | – |
| CC(C)(F)c1nc(N)nc(Nc2c(F)cccc2OCc2ccccc2)n1 [Example 257] | – | 100% | – | – | – |
